Measured values taken from patent publication US12115147B2, “Formulations and methods related to eye irritation” (Lebrun Labs LLC, priority 2020, dated 2024).
Where two headings read alike, the source gives them in different places. One block for each compound: values may come before it.

Tests used:
[1] = OPTISAFE in vitro ocular irritation test, original formulation without antioxidants; details: for OPTISAFE Score AVG: original formulation without antioxidants; for OPTISAFE Score AVG / OPTISAFE (no antioxidant) Score AVG: triplicate assays; for OPTISAFE (no antioxidant) Score AVG: ROS/CL chemicals
Procedure: Surfactants were diluted.
Next a study was conducted to determine if the addition of antioxidants changes the reliability (repeatability) of the test method. After this, a large study determined if antioxidants specifically reduce the false positive rate without impacting the true positive rate and the true negative rate and then all prior test chemicals were rested with antioxidants in triplicate.

[2] = pH 6.36
[3] = no antioxidants, predicted GHS class, cited from earlier work
rabbit eye = details: cited from earlier work; for In vivo GHS: Table 7B, based on the Draize data
[4] = OS2 (OPTISAFE2), OPTISAFE formulation with antioxidants; details: for OS2 Cons / OS2 R1 / OS2 R3: Table 7B; for OS2 Cons: majority prediction of the triplicate assays; for OS2 R1: repeat 1, with antioxidants; for OS2 R1 / OS2 R3: predicted GHS class; for OS2 R3: repeat 3, with antioxidants
[5] = test system: reconstituted human corneal epithelium; test: Modified EPIOCULAR test with or without ascorbic acid overlay, MTT viability
[6] = Table 7A, consensus of past transferability study
[7] = Table 7B, consensus of past application domain study

OS2 Cons [2]: 2
OS2 R1 [2]: 2
OS2 R3 [2]: 2
OS2 Score AVG [2]: 25.6 ± 2.4
Compound: CCOC(C)=O [Ethyl acetate]
OPTISAFE Score AVG [1]: 23.9 ± 2.0

OS2 (with antioxidant) Score AVG [2]: 11.4 ± 6.4
Compound: C=CCCCCCCC=C [1,9-Decadiene]
OPTISAFE (no antioxidant) Score AVG [1]: 22.5 ± 3.6
OS Cons [3, 6]: 2

OS2 Score AVG [2]: 15.1 ± 0.4
Compound: CCC(O)C(C)(C)C (stereo not drawn) [2,2-Dimethyl-3-pentanol]
OPTISAFE prediction without the antioxidant mixture [1]: overpredicted
OPTISAFE Score AVG [1]: 19.2 ± 1.2
OS Cons [3, 6]: 2

OS2 (with antioxidant) Score AVG [2]: 12.0 ± 0.3
Compound: CCOCCOCCO [2-(2-Ethoxyethoxy)ethanol]
OPTISAFE (no antioxidant) Score AVG [1]: 21.7 ± 0.3
OS Cons [3, 7]: 2

Compound: CCCCC(CC)COC(=O)CS (stereo not drawn)
OPTISAFE prediction without the antioxidant mixture [1]: overpredicted

Compound: CCN(CC)C(=O)c1cccc(C)c1 [n,n-Diethyl-m-toluamide]
In vivo GHS (rabbit eye): 2B (2B (reversal by 14 days))
known ocular irritancy (FIG. 4 legend) (rabbit eye; rabbit, in vivo): Irritants
OS Cons [3, 7]: 2
OS2 Cons [4]: 1
OS2 R1 [4]: 1
OS2 R3 [4]: 1

Compound: C=Cc1ccccc1 [Styrene]
OPTISAFE (no antioxidant) Score AVG [1]: 53.5 ± 10.1
OS2 (with antioxidant) Score AVG [2]: 3.5 ± 0.8
prediction, Condition 2 ([5]; ascorbic acid (0.3 mg/ml) in PBS overlay and culture medium): nonirritant (TN)
cell killing, Condition 2 ([5]; ascorbic acid (0.3 mg/ml) in PBS overlay and culture medium, MTT, visual): significantly less cell killing
cell killing, Condition 1 ([5]; no ascorbic acid added, 50 μL, 30 min exposure, MTT, visual): extensive cell killing

Compound: CC(C)Br [iso-Propyl bromide]
OPTISAFE prediction without the antioxidant mixture [1]: overpredicted

OS2 (with antioxidant) Score AVG [2]: 14.5 ± 2.7
OS2 Cons [2]: 2
OS2 R1 [2]: 2
Compound: C=C(C)C(=O)OCCOCC [2-Ethoxyethyl methacrylate]
OPTISAFE (no antioxidant) Score AVG [1]: 97.1 ± 18.2
OS Cons [3, 7]: 1

OS2 (with antioxidant) Score AVG [2]: 21.6 ± 2.5
OS2 Cons [2]: 2
OS2 R1 [2]: 2
OS2 R3 [2]: 2
Compound: CCOCCOCC [Ethylene glycol diethyl ether]
OPTISAFE (no antioxidant) Score AVG [1]: 25.4 ± 1.8
OS Cons [3, 7]: 2

OS2 Score AVG [2]: 10.2 ± 0.7
OS2 score average [2]: 9.5
OS2 scores ranged from [2]: 7.8-10.9
Score = Average score [2]: 9.5
Compound: CC(O)CC(C)O (stereo not drawn) [2,4-Pentanediol]
OPTISAFE Score AVG [1]: 12.0 ± 1.4

Compound: C=CCO [Allyl alcohol]
In vivo GHS (rabbit eye): 2A (2A (reversal by 7 days))
OS Cons [3, 7]: 1
OS2 Cons [4]: 1
OS2 R1 [4]: 1
OS2 R3 [4]: 1

Compound: c1ccc(OP(Oc2ccccc2)Oc2ccccc2)cc1 [Triphenyl phosphite]
OPTISAFE Score AVG [1]: 113.3 ± 2.1
OS Cons [3, 7]: 1
OS2 Cons [4]: 1
OS2 R1 [4]: 1
OS2 R3 [4]: 1
OS2 Score AVG ([4]; new formulation with antioxidants at the in vivo concentration, triplicate assays): 169.0 ± 9.9

OS2 Score AVG [2]: 3.0 ± 2.6
Compound: CCCCCCCCCCCC [Dodecane]
OPTISAFE Score AVG [1]: 0.9 ± 0.8

OS2 (with antioxidant) Score AVG [2]: 5.1 ± 1.7
OS2 score average [2]: 3.1
OS2 scores ranged from [2]: 2.1-4.2
Score = Average score [2]: 3.1
Compound: OCCOCCOCCO [Triethylene glycol]
OPTISAFE (no antioxidant) Score AVG [1]: 13.2 ± 3.5
OS Cons [3, 7]: 2
